In brackets after ≈: the same amount, converted by molar mass.
Assays:
[1] = test system: HFF cells; format: cell-based; conditions: human, 24 h, 100 µM
Description: (§1) Cultures of Human foreskin fibroblast (HFF; HFF-1 ATCC® SCRC-1041™), Madin–Darby bovine kidney (MDBK; ECACC) and mouse embryonic fibroblast (NIH/3T3; ATCC® CRL-1658™) cell lines were retrieved from −80 °C stock and cultured continuously at 37 °C under atmosphere 5% CO2 in our laboratory. The NIH/3T3 and HFF cell lines were maintained in Dulbecco Modified Eagle’s Medium (DMEM; Gibco, Grand Island, NY, USA), while MDBK cell line grown in Minimum Essential Medium Eagle (MEM; Gibco). Each medium was treated with 1% glutamine, 10% fetal bovine serum and 0.5% penicillin/streptomycin (Gibco). Every 72 to 96 h, the medium was replaced, and once 80% confluence was reached, the cell collection was performed by sub-culture protocol. To confirm the absence of mycoplasma contamination, 4,6-diamidino-2-phenylindole dihydrochloride (Sigma-Aldrich) stain was used [9].
(§2) The cell viability test was conducted in a 96-well plate as described elsewhere [4, 9, 51, 52]. Briefly, an aliquot of (100 µL) cells was implanted at a concentration of 5 × 10^4 cells/mL in DMEM or MEM with fetal bovine serum and incubated overnight under atmosphere 5% CO2 at 37 °C for attachment. […] After a 24-h incubation, Cell Counting Kits-8 (CCK-8) (10 µL) was added per well followed by the incubation of the plate for another 3 hours and a microplate reader was used to measure the absorbance at 450 nm.

[2] = test system: NIH/3T3 cells; conditions: mouse, 24 h, 100 µM
Description: as §1, §2

[3] = test system: MDBK cells; test: cells; format: cell-based, bovine
Description: as §1, §2

[4] = test system: B. microti; test: in vivo chemotherapeutic efficacy in B. microti-infected BALB/c mice
Description: MEBV and AERC were examined for their in vivo chemotherapeutic efficacy using B. microti-infected BALB/c mice according to a procedure described elsewhere. Briefly, twenty-five mice were placed in an environment free from pathogens with 22 °C temperature and adjusted humidity and under 12 h light and 12 h darkness and randomly distributed into five groups. All mice in groups 2 through 5 obtained 500 μL of 1 × 10^7 B. microti-iRBC by intraperitoneal (i.p.) injection. Group 1 served as a negative control and was neither infected nor treated. At 1% parasitemia, drug treatment of the mice […]. continuing for five days. Group 2 act as a positive control group and received 95% double-distilled water (DDW) and 5% DMSO. Groups 3 and 4 administered 150 mg/kg body weight (BW) of MEBV and AERC by the oral route, respectively. […] Furthermore, the hematological parameters, including HGB, RBCs, and HCT percentage were examined every four days using an automatic hematology analyzer (Celltac α MEK-6450, Nihon Kohden, Tokyo, Japan) to detect the effect of MEBV and AERC on the retrogression of anemia related to Babesia infection. […]

[5] = test system: L. donovani promastigotes; set-up: method as in PMID 2360830; conditions: read-out: IC50 leishmanicidal effect; cited from earlier work
[6] = test system: T. vaginalis; set-up: method as in PMID 29390009; conditions: cited from earlier work
[7] = test system: Trypanosoma brucei brucei; set-up: method as in PMID 28654013; conditions: cited from earlier work

## O=C1C(O)=C([C@H]2CC[C@H](c3ccc(Cl)cc3)CC2)C(=O)c2ccccc21 [ATV, atovaquone]
[1]
  effect on cell viability: neither DMA nor ATV (final concentration 100 µM) restricted the viability
[2]
  effect on cell viability: neither DMA nor ATV (final concentration 100 µM) restricted the viability
[3]; bovine, 24 h, 100 µM
  effect on cell viability: neither DMA nor ATV (final concentration 100 µM) restricted the viability

## CC(C)/N=c1\cc2n(-c3ccc(Cl)cc3)c3ccccc3nc-2cc1Nc1ccc(Cl)cc1 [CLF, clofazimine]
[3]; Bos taurus, MDBK cells, reference drug, read-out: EC50 MDBK cell viability
  EC50: 34 ± 3.4 µM

## CC(=O)NCC(=O)O.CC(=O)NCC(=O)O.N=C(N)c1ccc(N=NNc2ccc(C(=N)N)cc2)cc1 [DMA, diminazene aceturate]
[4]; 25 mg/kg BW, 5 days (day 4 to 8 p.i.), B. microti-infected BALB/c mice
  peak parasitemia level: 5%
[4]; 25 mg/kg, eighth day post-infection
  inhibition of B. microti multiplication: 92%

## COc1ccc2cc3[n+](cc2c1OC)CCc1cc2c(cc1-3)OCO2 [berberine]
[5]
  IC50: 7.1 µM

## C=CCc1ccc(OC)c(OC)c1 [methyleugenol]
[6]
  IC50 growth of T. vaginalis: 100 µg/mL

## CC(C)=CCCC(C)c1ccc(C)cc1 (stereo not drawn) [α-curcumene]
[6]
  IC50 growth of T. vaginalis: 100 µg/mL
[7]
  IC50 antitrypanosomal activity: 13.38 µg/mL (≈ 66.1 µM)

## C=C1CC/C=C(\C)CC[C@@H]2[C@@H]1CC2(C)C [β-caryophyllene]
[6]
  IC50 growth of T. vaginalis: 100 µg/mL
